Measurements as given in PubChem BioAssay AID248 (DTP/NCI, 2004).
Toxic doses and inconclusive results are not listed. Cut-off read from the data, not from the text of the source: active = T/C of 150% or more; inactive = T/C below 125%.

Test system: L1210 leukemia ip in BDF1 mice, survival T/C
Assay: NCI In Vivo Anticancer Drug Screen. Data for tumor model L1210 Leukemia (intraperitoneal) in B6D2F1 (BDF1) mice
Details: endpoint: mean survival time, higher = longer survival
How it was run: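 Tumor cells were implanted, animals were treated, and survival was followed. The result divides the treated measurement by the vehicle-control measurement.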

[1] = dose: 100.0 mg/kg/injection, schedule: Q04DX002 (ip), vehicle: saline with Tween-80
[2] = dose: 200.0 mg/kg/injection, schedule: Q04DX002 (ip), vehicle: saline with Tween-80
[3] = dose: 100.0 mg/kg/injection, schedule: Q01DX009 (ip), vehicle: saline with Tween-80
[4] = dose: 200.0 mg/kg/injection, schedule: Q01DX009 (ip), vehicle: saline with Tween-80
[5] = dose: 50.0 mg/kg/injection, schedule: Q01DX009 (ip), vehicle: saline with Tween-80

Measured: T/C

O=[N+]([O-])c1ccc(N/N=C(\Cc2ccccc2)CC(O)(C(F)(F)F)C(F)(F)F)c([N+](=O)[O-])c1
inactive: dose: 25.0 mg/kg/injection, schedule: Q01DX009 (ip), vehicle: gum acacia 92 % of control | dose: 50.0 mg/kg/injection, schedule: Q01DX009 (ip), vehicle: gum acacia 96 % of control | dose: 100.0 mg/kg/injection, schedule: Q01DX001 (ip), vehicle: gum acacia 106 % of control | dose: 100.0 mg/kg/injection, schedule: Q01DX009 (ip), vehicle: gum acacia 98 % of control | dose: 200.0 mg/kg/injection, schedule: Q01DX001 (ip), vehicle: gum acacia 100 % of control | dose: 200.0 mg/kg/injection, schedule: Q01DX009 (ip), vehicle: gum acacia 94 % of control | dose: 400.0 mg/kg/injection, schedule: Q01DX001 (ip), vehicle: gum acacia 98 % of control | dose: 400.0 mg/kg/injection, schedule: Q01DX009 (ip), vehicle: gum acacia 93 % of control

CCOC(=O)c1cc2ccccc2[nH]1
inactive: dose: 50.0 mg/kg/injection, schedule: Q01DX001 (ip), vehicle: Klucel (hydroxypropylcellulose) (HPC) 93 % of control | dose: 100.0 mg/kg/injection, schedule: Q01DX001 (ip), vehicle: Klucel (hydroxypropylcellulose) (HPC) 98 % of control | [1] 97 % of control | dose: 200.0 mg/kg/injection, schedule: Q01DX001 (ip), vehicle: Klucel (hydroxypropylcellulose) (HPC) 93 % of control | [2] 87 % of control | dose: 400.0 mg/kg/injection, schedule: Q04DX002 (ip), vehicle: saline with Tween-80 97 % of control

CN(C)c1ccc(/C=C2/CCCC/C2=N/O)cc1
inactive: [3] 98 % of control | [4] 92 % of control | dose: 400.0 mg/kg/injection, schedule: Q01DX009 (ip), vehicle: saline with Tween-80 88 % of control

N#C/C(=C\C=C\c1ccccc1)C(N)=O
inactive: [5] 102 % of control | [3] 96 % of control | dose: 100.0 mg/kg/injection, schedule: Q04DX003 (ip), vehicle: saline with Tween-80 96 % of control | [4] 101 % of control | dose: 200.0 mg/kg/injection, schedule: Q04DX003 (ip), vehicle: saline with Tween-80 100 % of control

O=C1Nc2ccc(Br)cc2C1(O)Cc1cccc([N+](=O)[O-])c1 (centres undefined)
inactive: [5] 90 % of control | [3] 93 % of control | [1] 91 % of control | [4] 90 % of control | [2] 91 % of control

CC(=O)OC1CCCCCCC1
inactive: dose: 100.0 mg/kg/injection, schedule: Q01DX009 (ip), vehicle: Klucel (hydroxypropylcellulose) (HPC) 97 % of control | dose: 100.0 mg/kg/injection, schedule: Q04DX003 (ip), vehicle: Klucel (hydroxypropylcellulose) (HPC) 95 % of control | dose: 200.0 mg/kg/injection, schedule: Q01DX009 (ip), vehicle: Klucel (hydroxypropylcellulose) (HPC) 100 % of control | dose: 200.0 mg/kg/injection, schedule: Q04DX003 (ip), vehicle: Klucel (hydroxypropylcellulose) (HPC) 92 % of control | dose: 400.0 mg/kg/injection, schedule: Q01DX009 (ip), vehicle: Klucel (hydroxypropylcellulose) (HPC) 94 % of control | dose: 400.0 mg/kg/injection, schedule: Q04DX003 (ip), vehicle: Klucel (hydroxypropylcellulose) (HPC) 92 % of control

C/C=C(/C)N(C(C)=O)N(C(C)=O)c1ccc([N+](=O)[O-])cc1[N+](=O)[O-]
inactive: dose: 100.0 mg/kg/injection, schedule: Q01DX009 (ip), vehicle: other 103 % of control | dose: 100.0 mg/kg/injection, schedule: Q04DX003 (ip), vehicle: saline 104 % of control | dose: 200.0 mg/kg/injection, schedule: Q01DX009 (ip), vehicle: other 101 % of control | dose: 200.0 mg/kg/injection, schedule: Q04DX003 (ip), vehicle: saline 105 % of control | dose: 400.0 mg/kg/injection, schedule: Q01DX009 (ip), vehicle: other 97 % of control | dose: 400.0 mg/kg/injection, schedule: Q04DX003 (ip), vehicle: saline 107 % of control
